The text below walks through data of patent US11612611B2, “Composition and method for treating muscle cramps containing choline alfoscerate as active ingredient” (NANOSTEM CO., LTD., priority 2017, dated 2023).

Data set [1] relates to patients with nocturnal calf cramps. The note with it: 1-2 mL of 0.25% lidocaine at MTrPs of gastrocnemius muscle; cited from earlier work.
Data set [2] has as its system patients with muscle cramps. The data set can be described thus: Pain intensity (11-point PI-NRS) in patients with muscle cramps, one-month test. It is filed as in vivo, human. As for the experimental part: Patients who experience muscle cramps when stabilized for 3 months without taking exercise were selected as subjects.
The “trigger point injection group (control group)” patients were injected with 5 mL of 0.5% lidocaine at the trigger points (4-5 points), once a week.
(§1) The “choline alfoscerate intravenous administration group (Example 1)” patients were intravenously injected slowly with choline alfoscerate (1 g/4 mL) mixed in 100 mL of physiological saline, twice a week.
(§2) The “choline alfoscerate oral administration group (Example 2)” patients were […] with choline alfoscerate (400 mg/capsule), 3 times a day.
The test period was one month. […] The pain intensity was evaluated according to the 11-point pain intensity numerical rating scale (PI-NRS), where 0=no pain, weakest pain=1 and most severe pain=10. 2-point reduction in the pain intensity was considered clinically significant as reported (Farrar 2001, Rowbotham 2001, Hawker 2011). The pain intensity was measured on the first visit and was compared with the pain intensity 2 weeks (T1) and 4 weeks (T2) after the first drug administration.

In data set [3] the test system is patients with muscle cramps. Nature of the data set: Frequency of muscle cramps for a week in patients with muscle cramps, one-month test. Conditions: for Frequency of muscle cramps: per week.
The subject of data set [4] is patients with muscle cramps. The data set can be described thus: Side effects after the treatment in patients with muscle cramps. Format: in vivo, human. The procedure: as §1, §2
Because choline alfoscerate has no effect on the kidney and liver, it is thought that it can be used for people with kidney or liver problems as a therapeutic agent for muscle cramps.

For data set [5] the following is noted: reported since 1969; cited from earlier work.
Where [6] appears, read: trigger point injection (0.5% lidocaine), before drug administration.
[7] abbreviates: trigger point injection, 5 mL 0.5% lidocaine once a week, T1 (first 2 weeks).
Setting [8] is: trigger point injection, 5 mL 0.5% lidocaine once a week, T2 (second 2 weeks).
Setting [9] is: trigger point injection, 5 mL 0.5% lidocaine once a week, before drug administration (baseline).
Setting [10] is: Example 1, intravenous 1 g twice a week, T1 (first 2 weeks).
[11] abbreviates: Example 1, intravenous 1 g twice a week, T2 (second 2 weeks).
The mark [12] stands for this setting: Example 1, intravenous 1 g twice a week, before drug administration (baseline).
[13] abbreviates: Example 2, oral 400 mg capsule 3 times a day, T1 (first 2 weeks).
Setting [14] is: Example 2, oral 400 mg capsule 3 times a day, T2 (second 2 weeks).
Setting [15] is: Example 2, oral 400 mg capsule 3 times a day, before drug administration (baseline).
[16] abbreviates: intravenous administration group (Example 1), T1.
Setting [17] is: intravenous administration group (Example 1), T2.
Setting [18] is: intravenous administration group (Example 1), before drug administration.
Setting [19] is: oral administration group (Example 2), T1.
The mark [20] stands for this setting: oral administration group (Example 2), T2.
Setting [21] is: oral administration group (Example 2), before drug administration.

The structures appear in SMILES notation.

As to `CCN(CC)CC(=O)Nc1c(C)cccc1C` [Control group (TPI), lidocaine], in data set [1], the “frequency of cramps for a week as compared to before the administration” value is recorded as “decreased significantly”. The “insomnia severity index (ISI) as compared to before the administration” value in data set [1] is “decreased significantly”. Moreover, the “intensity of pain as compared to before the administration” value in data set [1] was “decreased significantly”. Besides, the pain intensity in data set [2] (trigger point injection (0.5% lidocaine), 2 weeks after first drug administration (T1)) is 3.74 points; in data set [2] (trigger point injection (0.5% lidocaine), 4 weeks after first drug administration (T2)) it was 2.11 points; in data set [2] (setting [6]), 5.34 points; in data set [2] (setting [7]) it was 3.74 ± 0.91; in data set [2] (setting [8]) it was 2.11 ± 0.76; in data set [2] (setting [9]), 5.34 ± 0.87. Besides, the “frequency of muscle cramps for a week” value in data set [3] (trigger point injection (0.5% lidocaine), T1) was 2.00 times; in data set [3] (trigger point injection (0.5% lidocaine), T2) it was 1.43 times; in data set [3] (setting [6]), 2.84 times. The entries for the “Frequency of muscle cramps” value in data set [3] (setting [7]), in data set [3] (setting [8]) and in data set [3] (setting [9]) were 2.00 ± 0.68, 1.43 ± 0.53 and 2.84 ± 0.99, respectively.
In the case of `C[N+](C)(C)CCOP(=O)([O-])OC[C@H](O)CO` [choline alfoscerate], the “side effect after the treatment” value in data set [4] (intravenous administration group (Example 1)) and in data set [4] (oral administration group (Example 2)) was “no side effect” each time. Moreover, the pain intensity in data set [2] (setting [10]) was 2.56 ± 1.49; in data set [2] (setting [11]) it was 1.32 ± 0.91; in data set [2] (setting [12]), 6.50 ± 1.26; in data set [2] (setting [13]), 3.94 ± 1.17; in data set [2] (setting [14]), 1.88 ± 0.92; in data set [2] (setting [15]), 6.31 ± +0.94. Moreover, the pain intensity is 2.56 points in data set [2] (setting [16]); 1.32 points in data set [2] (setting [17]); 6.50 points in data set [2] (setting [18]); 3.94 points in data set [2] (setting [19]); 1.88 points in data set [2] (setting [20]); 6.31 points in data set [2] (setting [21]). Also, the “pain intensity as compared to trigger point injection group (control group)” value in data set [2] (intravenous (Example 1), at both T1 and T2, P < 0.05) is given as “significant decrease”. The “Frequency of muscle cramps” value in data set [3] (setting [10]) came to 1.56 ± 1.34; in data set [3] (setting [11]), 0.88 ± 1.19; in data set [3] (setting [12]), 4.91 ± 2.40; in data set [3] (setting [13]) it was 2.67 ± 1.07; in data set [3] (setting [14]), 1.05 ± 0.70; in data set [3] (setting [15]) it was 5.25 ± 1.47. Further, the “frequency of muscle cramps for a week as compared to control group” value in data set [3] (intravenous (Example 1), T1, P < 0.05) is “significant decrease”; in data set [3] (oral (Example 2), T1, higher baseline frequency in this group), “significant increase”. The “frequency of muscle cramps as compared to control group” value in data set [3] (intravenous (Example 1), T2) was “significant decrease”; in data set [3] (oral (Example 2), T2) it was “significant decrease”. In addition, the “frequency of muscle cramps for a week” value was determined as 1.56 times in data set [3] (setting [16]); 0.88 time in data set [3] (setting [17]); 4.91 times in data set [3] (setting [18]); 2.67 times in data set [3] (setting [19]); 1.05 times in data set [3] (setting [20]); 5.25 times in data set [3] (setting [21]).
On to `C=C[C@H]1C[N@@]2CC[C@H]1C[C@H]2[C@H](O)c1ccnc2ccc(OC)cc12` [quinine], for which, in data set [5], the death reported was 93 cases and the “severe side effects reported” value is listed as 665 cases.
